Columns and labels:
[1] = test system: histone 4 acetylated lysine 8 (H4K8Ac); assay: Histone hyperacetylation assay (Western blot H4K8Ac) in P. falciparum 3D7 infected erythrocytes; format: cell-based; conditions: Plasmodium falciparum, Erythrocyte, 20 nM to 10 uM, 14-16 hours, read-out: estimated EC50 in the hyperacetylation assay
Experimental: FIG. 1. Hyperacetylation of P. falciparum histones. Plasmodium falciparum 3D7 infected erythrocytes (5-7% parasitemia) were cultured for 14-16 hours in vitro with increasing concentrations (6 nM to 3 uM) of (A): compound (S)-N-(7-(methylamino)-1-(5-(naphthalen-2-yl)-1H-imidazol-2-yl)-7-oxoheptyl)quinuclidine-4-carboxamide (Table 2, entry 126) or with vehicle (0.01% DMSO); increasing concentrations (20 nM to 10 uM) of (B): compound (S)-N-(1-(5-(4-(1H-pyrazol-5-yl)phenyl)-1H-imidazol-2-yl)-7-(methylamino)-7-oxoheptyl)thiazole-5-carboxamide (Table 2, entry 221; Example 4, D9). Beta-actin was used as loading control (see materials and methods). H4K8Ac: antibody directed against acetylated lysine 8 of histone 4. […]
(§1) The effect of test compounds on histone acetylation status was determined by incubating Plasmodium falciparum 3D7 infected erythrocytes or HeLa cells with different concentrations of drugs or vehicle (0.01% DMSO) alone. […] Supernatants were analyzed by 12% SDS-PAGE and transferred onto PVDF (Immun-Blot PVDF Membrane for Protein Blotting, BIORAD, Cat: No 162-0177) membranes. […]

[2] = test system: histone 4 acetylated lysine 8 (H4K8Ac); assay: Histone hyperacetylation assay (Western blot H4K8Ac) in HeLa cells; format: cell-based, human; conditions: data not shown
Experimental: FIG. 2. Hyperacetylation of HeLa's histones. HeLa cells were incubated in vitro for 14-16 hours with increasing concentrations (49 nM to 25 uM) of compound (S)-N-(7-(methylamino)-1-(5-(naphthalen-2-yl)-1H-imidazol-2-yl)-7-oxoheptyl)quinuclidine-4-carboxamide (Table 2, entry 126) or were treated with vehicle (0.01% DMSO). Beta-actin was used as loading control (see materials and methods). H4K8Ac: antibody directed against acetylated lysine 8 of histone 4.
(§2) After result normalization using positive and negative controls, compound potency is determined by fitting the following equation: % inh=Ymin+(Ymax−Ymin)/(1+(X/EC50)^slope)) Where: • Ymin=minimum percentage effect • Ymax=maximum percentage effect • EC50=the concentration of the compound at which 50% effect is reached • Slope=the slope of the curve calculated at the EC50 Histone Hyperacetylation and Immunodetection of Altered Histone Modifications Assay
as §1, with “alone. Infected erythrocytes were collected at 14-16 hours post treatment and lysed in saponin (0.15%).” for “alone.”

human HDAC1 = biological target: T1, human HDAC1 (Homo sapiens, UniProt Q13547); assay: Homo sapiens HDAC1 inhibition assay (Fluor-de-Lys, enzymatic); format: biochemical; conditions: human HDAC enzymatic assay; read-out: hHDAC IC50
T1 construct: made in house; host or cells: HeLa (ATCC CCL-2), mammalian cells
T1 sequence (Q13547 whole entry): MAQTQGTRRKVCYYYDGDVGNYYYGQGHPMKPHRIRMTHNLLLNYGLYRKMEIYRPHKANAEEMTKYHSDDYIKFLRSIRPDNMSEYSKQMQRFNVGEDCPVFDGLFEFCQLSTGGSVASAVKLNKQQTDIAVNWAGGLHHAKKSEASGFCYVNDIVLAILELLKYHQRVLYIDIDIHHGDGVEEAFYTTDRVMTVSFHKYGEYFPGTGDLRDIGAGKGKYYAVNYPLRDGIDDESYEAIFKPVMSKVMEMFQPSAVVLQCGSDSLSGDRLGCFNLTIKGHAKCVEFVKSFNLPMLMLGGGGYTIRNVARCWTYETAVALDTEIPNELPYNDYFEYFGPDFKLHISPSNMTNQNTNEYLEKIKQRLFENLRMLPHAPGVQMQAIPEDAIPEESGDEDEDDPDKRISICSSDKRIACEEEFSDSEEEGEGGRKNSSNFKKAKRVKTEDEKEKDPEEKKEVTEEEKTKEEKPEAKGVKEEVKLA
Outline: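 Product developed with trypsin developer containing 2 μM TSA to stop the reaction; fluorescence measures deacetylase activity, inversely related to inhibition.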

[3] = test system: Plasmodium falciparum 3D7; assay: P. falciparum growth inhibition assay (Pf-LDH); format: cell-based; conditions: for EC50: Plasmodium falciparum; for Selectivity Index: HDAC HeLa Cell Based IC50 (μM)/Pf-LDH EC50 (μM)
Outline: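 P. falciparum 3D7 (chloroquine-sensitive) at 0.25% parasitemia and 2% hematocrit was incubated with compound for 72 h at 37° C under 4% CO2/3% O2/93% N2. After freeze-thaw, PfLDH activity was read at 650 nm with lactate/APAD/NBT/diaphorase mix (pH 8.0).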

[4] = test system: HDAC1 (deacetylase activity inside HeLa cells); assay: Cell based HDAC1 inhibition (HDAC HeLa Cell based assay); set-up: species or system human
Experimental: After result normalization using positive and negative controls, compound potency is determined by fitting the following equation: % inh=Ymin+(Ymax−Ymin)/(1+(X/IC50)^slope)) Where: • Ymin=minimum percentage inhibition • Ymax=maximum percentage inhibition • IC50=the concentration of the compound at which 50% inhibition is reached • Slope=the slope of the curve calculated at the IC50 Cell Based HDAC1 Inhibition Overview:
The aim of the assay is to evaluate the inhibition of the deacetylase activity inside the cells. To such goal a membrane permeable substrate is added to HeLa cells. After the incubation period, cells are lysed and the deacetylated substrate is evaluated using the same principles previously described for the human HDAC1 assay.
HeLa cells (HeLa, cervix adnocarcinoma, ATCC® Number: CCL-2™) frozen stock are derived from cell cultured in DMEM, glutamine, penicilline, streptomicine and 10% fetal bovine serum (FBS). Stock are frozen in 90% FBD and 10% DMSO.
b) HDAC Substrate Buffer System
Reagents of the HDAC Fluorescent Activity Assay are purchased from Enzo Life Sciences (http://www.enzolifesciences.com/BML-AK500/fluor-de-lys-hdac-fluorometric-activity-assay-kit/) and feature the Fluor-de-Lys™ Substrate/Developer System. The reagents include the proprietary fluorescent substrate as a 50 mM stock solution (KI-104), and the Developer Concentrate (KI-105). Deacetylation of the lysine residue of the Fluor-de-Lys substrate is quantified by measuring the fluorescence (ex 360 nm, em 460 nm) after addition of the proprietary developer.
TSA is provided as a 10 mM stock solution in 100% dimethylsulfoxide (DMSO).
Test compounds should be prepared in 100% DMSO and transferred to the assay by a nano volume dispenser to reach the appropriate concentration and the appropriate DMSO concentration (0.25%) in the reaction.
GIBCO Dulbecco's Mod Eagle Medium without Phenol Red (cat n° 11880) Completed with 10% FCS—fetal bovine serum—, 1% Penicillin-Streptomycin (10 mg/ml) and 1% L-Glutamine 200 mM (100×)
f) Diluted Substrate Solution
The commercial 50 mM Fluor-de-Lys substrate (KI-104) is diluted to 400 uM in Assay Buffer prior to each use.
g) Diluted Stop-Lysis-Developer Solution
The reaction is performed in 384-well microplate in a final volume of 20 μl/well+10 μl/well of Stop-Lysis-Developer Mix, as following: • seed 10000 HeLa cells/well, from the frozen aliquots, in 15 μl in assay medium and let recover overnight; • transfer compounds to the assay by nano-volume transfer machine in order to reach the desired assay concentration and a final DMSO concentration of 0.25%; • pre-incubate compounds on cells for 30 min; • start the reaction by adding 5 μl of the Diluted Substrate Solution; • stop the reaction after 4 h incubation at 37° C. 5% CO2 by adding 10 μl of Diluted Stop-Lysis-Developer Solution; • incubate 20 min at 37° C.; • after 10 min at RT measure the fluorescence at excitation 360 nm and emission 460 nm
Negative controls (0% Effect) are produced by addition of DMSO to the proper wells.
Positive controls (100% Effect) are produced by addition of 4 μM TSA to the proper wells.
as §2, with “In Vitro Culture” for “Histone Hyperacetylation and Immunodetection”, “P. falciparum Parasites” for “Altered Histone Modifications Assay”

[5] = Erythrocyte, P. falciparum 3D7 infected erythrocytes, 72 h incubation, PfLDH readout

| IC50 (human HDAC1) | EC50 [3, 5] | IC50 [4] | SMILES | EC50 [1] | concentration up to which no change in histone acetylation was observed in HeLa cells [2] | EC50 ([3]; P. falciparum 3D7, n=11) | Selectivity Index [3] |
| --- | --- | --- | --- | --- | --- | --- | --- |
|  |  |  | CNC(=O)CCCCC[C@H](NC(=O)c1cncs1)c1ncc(-c2ccc(-c3ccn[nH]3)cc2)[nH]1 [D9, (S)-N-(1-(5-(4-(1H-pyrazol-5-yl)phenyl)-1H-imidazol-2-yl)-7-(methylamino)-7-oxoheptyl)thiazole-5-carboxamide] | 0.35 µM | > 10 µM |  |  |
| > 5 µM | 1 to 5 µM |  | CNC(=O)CCCCC[C@H](NC(=O)c1cnn(C(C)C)c1)c1ncc(-c2ccc(-c3ccn(C)n3)cc2)o1 [Entry 223, (S)-1-isopropyl-N-(1-(5-(4-(1-methyl-1H-pyrazol-3-yl)phenyl)oxazol-2-yl)-7-(methylamino)-7-oxoheptyl)-1H-pyrazole-4-carboxamide] |  |  |  |  |
| > 5 µM | 1 to 5 µM |  | CNC(=O)CCCCC[C@H](NC(=O)c1cnn(C)c1)c1ncc(-c2ccc(-c3ccn(C)n3)cc2)o1 [Entry 224, (S)-1-methyl-N-(1-(5-(4-(1-methyl-1H-pyrazol-3-yl)phenyl)oxazol-2-yl)-7-(methylamino)-7-oxoheptyl)-1H-pyrazole-4-carboxamide] |  |  |  |  |
| > 5 µM | 1 to 5 µM |  | CNC(=O)CCCCC[C@H](NC(=O)c1cnc(C)s1)c1ncc(-c2ccc(-c3ccn(C)n3)cc2)o1 [Entry 225, (S)-2-methyl-N-(1-(5-(4-(1-methyl-1H-pyrazol-3-yl)phenyl)oxazol-2-yl)-7-(methylamino)-7-oxoheptyl)thiazole-5-carboxamide] |  |  |  |  |
| > 5 µM | 1 to 5 µM |  | CNC(=O)CCCCC[C@H](NC(=O)c1cnsc1)c1ncc(-c2ccc(-c3ccn(C)n3)cc2)o1 [Entry 226, (S)-N-(1-(5-(4-(1-methyl-1H-pyrazol-3-yl)phenyl)oxazol-2-yl)-7-(methylamino)-7-oxoheptyl)isothiazole-4-carboxamide] |  |  |  |  |
| < 1 µM | < 1 µM | 1 to 5 µM | CNC(=O)CCCCC[C@H](NC(=O)c1cnn(C(C)C)c1)c1ncc(-c2ccc3cc(OC)ncc3c2)[nH]1 [compound 227, (S)-1-isopropyl-N-(1-(5-(3-methoxyisoquinolin-7-yl)-1H-imidazol-2-yl)-7-(methylamino)-7-oxoheptyl)-1H-pyrazole-4-carboxamide] |  |  |  | 23.5 |
| > 5 µM | 1 to 5 µM | > 5 µM | CNC(=O)CCCCC[C@H](NC(=O)c1cncs1)c1ncc(-c2ccc(-c3cnn(C)c3)cc2)[nH]1 [compound 228, (S)-N-(1-(5-(4-(1-methyl-1H-pyrazol-4-yl)phenyl)-1H-imidazol-2-yl)-7-(methylamino)-7-oxoheptyl)thiazole-5-carboxamide] |  |  |  | 6.7 |
| > 5 µM | 1 to 5 µM | > 5 µM | CNC(=O)CCCCC[C@H](NC(=O)c1cncs1)c1ncc(-c2ccc(-c3ccnn3C)cc2)[nH]1 [compound 229, (S)-N-(1-(5-(4-(1-methyl-1H-pyrazol-5-yl)phenyl)-1H-imidazol-2-yl)-7-(methylamino)-7-oxoheptyl)thiazole-5-carboxamide] |  |  |  | 5.6 |
| 1 to 5 µM | 1 to 5 µM | > 5 µM | CNC(=O)CCCCC[C@H](NC(=O)c1cncs1)c1ncc(-c2ccc(-c3cncs3)cc2)[nH]1 [compound 230, (S)-N-(7-(methylamino)-7-oxo-1-(5-(4-(thiazol-5-yl)phenyl)-1H-imidazol-2-yl)heptyl)thiazole-5-carboxamide] |  |  |  | 3.6 |
| 1 to 5 µM | < 1 µM | > 5 µM | CNC(=O)CCCCC[C@H](NC(=O)c1cncs1)c1ncc(-c2ccc(-c3nccs3)cc2)[nH]1 [compound 231, (S)-N-(7-(methylamino)-7-oxo-1-(5-(4-(thiazol-2-yl)phenyl)-1H-imidazol-2-yl)heptyl)thiazole-5-carboxamide] |  |  |  | 10.6 |
| 1 to 5 µM | < 1 µM | > 5 µM | CNC(=O)CCCCC[C@H](NC(=O)c1cncs1)c1ncc(-c2ccc(-c3cscn3)cc2)[nH]1 [compound 232, (S)-N-(7-(methylamino)-7-oxo-1-(5-(4-(thiazol-4-yl)phenyl)-1H-imidazol-2-yl)heptyl)thiazole-5-carboxamide] |  |  |  | 14.2 |

| SMILES | IC50 (human HDAC1) | EC50 [3, 5] | IC50 [4] | EC50 [1] | concentration up to which no change in histone acetylation was observed in HeLa cells [2] | EC50 ([3]; P. falciparum 3D7, n=11) | Selectivity Index [3] |
| --- | --- | --- | --- | --- | --- | --- | --- |
| CNC(=O)CCCCC[C@H](NC(=O)C12CCN(CC1)CC2)c1ncc(-c2ccc3ccccc3c2)[nH]1 [compound 126, (S)-N-(7-(methylamino)-1-(5-(naphthalen-2-yl)-1H-imidazol-2-yl)-7-oxo-heptyl)quinuclidine-4-carboxamide] | < 1 µM | < 1 µM |  |  |  | 0.293 µM |  |
